# Legend:
# Dectin-1.Fc = biological target: T1, Dectin-1.Fc (Homo sapiens, UniProt Q9BXN2); experiment: Immunosorbent dot binding assay with Dectin-1.Fc; settings: competitor 0.1 μg-1000 μg, or EDTA 10 mM in TBST
# T1 construct: The extracellular domains of lectin receptors, TREMs and TLTs were cloned by the reverse-transcriptase polymerase chain reaction (RT-PCR); made in house; host or cells: 293-F (FreeStyle 293) cells
# T1 sequence (Q9BXN2 66-247 limits assumed): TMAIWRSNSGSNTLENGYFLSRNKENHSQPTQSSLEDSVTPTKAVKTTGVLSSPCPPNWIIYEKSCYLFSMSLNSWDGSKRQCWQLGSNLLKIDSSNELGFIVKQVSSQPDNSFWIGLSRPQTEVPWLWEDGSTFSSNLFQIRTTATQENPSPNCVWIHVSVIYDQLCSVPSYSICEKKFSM
# KCR.Fc = biological target: T2, KCR.Fc (Mus musculus, UniProt P70194); experiment: Immunosorbent dot binding assay with KCR.Fc; settings: EDTA 10 mM in TBST
# T2 construct: the extracellular domains of DVLR1/CLEC5A (MDL-1), Dectin-1, KCR, and DC-SIGN (as a positive control) were fused to the Fc portion of human IgG1; made in house; host or cells: 293-F (FreeStyle 293) cells
# T2 sequence (P70194 70-548 limits assumed): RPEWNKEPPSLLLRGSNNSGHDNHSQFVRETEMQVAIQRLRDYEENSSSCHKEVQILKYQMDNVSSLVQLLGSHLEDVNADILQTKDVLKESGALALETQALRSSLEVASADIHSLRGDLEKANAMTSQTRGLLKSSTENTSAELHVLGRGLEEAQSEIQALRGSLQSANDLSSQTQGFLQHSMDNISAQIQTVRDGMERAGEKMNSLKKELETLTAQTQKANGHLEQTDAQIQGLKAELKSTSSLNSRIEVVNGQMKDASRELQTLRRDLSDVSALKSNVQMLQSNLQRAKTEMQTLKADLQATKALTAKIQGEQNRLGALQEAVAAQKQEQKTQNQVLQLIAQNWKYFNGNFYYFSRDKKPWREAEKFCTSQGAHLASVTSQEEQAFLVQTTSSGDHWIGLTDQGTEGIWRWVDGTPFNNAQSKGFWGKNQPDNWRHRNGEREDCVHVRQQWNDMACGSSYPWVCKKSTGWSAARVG
# DC-SIGNR.Fc = biological target: T3, DC-SIGNR.Fc (Homo sapiens, UniProt Q9H2X3); experiment: Immunosorbent dot binding assay with DC-SIGNR.Fc; settings: EDTA 10 mM in TBST
# T3 construct: The extracellular domains of lectin receptors, TREMs and TLTs were cloned by the reverse-transcriptase polymerase chain reaction (RT-PCR); made in house; host or cells: 293-F (FreeStyle 293) cells
# T3 sequence (Q9H2X3 71-399): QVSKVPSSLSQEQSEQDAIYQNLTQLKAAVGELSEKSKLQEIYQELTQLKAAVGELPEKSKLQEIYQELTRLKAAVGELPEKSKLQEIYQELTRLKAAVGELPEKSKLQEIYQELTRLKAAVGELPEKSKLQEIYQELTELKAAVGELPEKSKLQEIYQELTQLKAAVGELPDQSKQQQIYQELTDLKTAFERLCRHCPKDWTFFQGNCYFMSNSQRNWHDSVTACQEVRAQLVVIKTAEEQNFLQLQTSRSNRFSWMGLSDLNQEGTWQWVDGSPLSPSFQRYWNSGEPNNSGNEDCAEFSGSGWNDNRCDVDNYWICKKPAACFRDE
# TLT-2.Fc = biological target: T4, TLT-2.Fc (Homo sapiens, UniProt Q5T2D2); experiment: Immunosorbent dot binding assay with TLT-2.Fc; settings: EDTA 10 mM in TBST
# T4 construct: The extracellular domains of lectin receptors, TREMs and TLTs were cloned by the reverse-transcriptase polymerase chain reaction (RT-PCR); made in house; host or cells: 293-F (FreeStyle 293) cells
# T4 sequence (Q5T2D2 19-268 limits assumed): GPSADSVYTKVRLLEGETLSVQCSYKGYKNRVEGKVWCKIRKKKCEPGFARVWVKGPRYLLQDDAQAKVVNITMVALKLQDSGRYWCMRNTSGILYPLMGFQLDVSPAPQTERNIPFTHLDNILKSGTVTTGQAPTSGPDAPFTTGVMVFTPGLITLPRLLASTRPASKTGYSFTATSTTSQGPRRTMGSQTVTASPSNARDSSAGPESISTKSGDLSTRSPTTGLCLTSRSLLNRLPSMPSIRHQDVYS
# TLR4.Fc = biological target: T5, TLR4.Fc (Homo sapiens, UniProt O00206); experiment: Sugar competition EIA, TLR4.Fc binding to GLPS-F3; settings: sugar 1 mg/ml
# T5 construct: The extracellular domains of several innate immunity receptors from immune cells were cloned by reverse-transcription polymerase chain reaction (RT-PCR); made in house; host or cells: 293-F (FreeStyle 293) cells
# Protocol: (§1) The interaction between GLPS-F3 and receptor.Fc was then tested. Unbiotinylated GLPS-F3 was immobilized at 100 ng/well as described above, and 100 μL receptor.Fc fusion protein (1 μg/ml in 2 mM MgCl2/2 mM CaCl2/1% BSA/TBST) was added into each well and incubated for 1 hour at room temperature. After washing with TBST, wells were incubated with peroxidase-conjugated goat anti-human IgG Ab (1:5000 dilution, Jackson ImmunoResearch Laboratories) in blocking buffer at room temperature for 30 min. Wells were incubated with 100 μL TMB substrate for 15 min after TBST washing and read at 450 nm in a Fusion plate reader (Perkin Elmer). The results were normalized with respect to Fc.Dectin-1 binding (Dectin-1 is a known lectin receptor that binds to β-1,3-glucan which is the backbone found in GLPS-F3). FIG. 6B depicts in graphical form the affinity of each receptor for GLPS-F3 relative to Dectin-1. […] There was also weaker but positive GLPS-F3 binding ability (25-50% binding intensity compared to Fc.dectin-1) found in Fc.NKG2D, Fc.MINCLE, Fc.mKCR, DCAL1.Fc, DEC205.Fc, Endo180.Fc and NKp30(NCR3).Fc.
# (§2) To understand the interaction of GLPS-F3 with specific innate immunity receptors, the polysaccharides mannan and β-glucan and the monosaccharides D-mannose (Man), D-glucose (Glc), N-acetyl-glucosamine (GlcNAc), D-galactose (Gal), N-acetyl-galactosamine (GalNAc), L-fucose (Fuc) and sialic acid, were used in a competition assay. […] The assays were carried out as in Example 9, with the addition of 1 mg/ml of each polysaccharide or monosaccharide.
# MMR.Fc = biological target: T6, MMR.Fc (Homo sapiens, UniProt P22897); experiment: Sugar competition EIA, MMR.Fc binding to GLPS-F3; settings: sugar 1 mg/ml
# T6 construct: The extracellular domains of lectin receptors, TREMs and TLTs were cloned by the reverse-transcriptase polymerase chain reaction (RT-PCR); made in house; host or cells: 293-F (FreeStyle 293) cells
# T6 sequence (P22897 19-1389 limits assumed): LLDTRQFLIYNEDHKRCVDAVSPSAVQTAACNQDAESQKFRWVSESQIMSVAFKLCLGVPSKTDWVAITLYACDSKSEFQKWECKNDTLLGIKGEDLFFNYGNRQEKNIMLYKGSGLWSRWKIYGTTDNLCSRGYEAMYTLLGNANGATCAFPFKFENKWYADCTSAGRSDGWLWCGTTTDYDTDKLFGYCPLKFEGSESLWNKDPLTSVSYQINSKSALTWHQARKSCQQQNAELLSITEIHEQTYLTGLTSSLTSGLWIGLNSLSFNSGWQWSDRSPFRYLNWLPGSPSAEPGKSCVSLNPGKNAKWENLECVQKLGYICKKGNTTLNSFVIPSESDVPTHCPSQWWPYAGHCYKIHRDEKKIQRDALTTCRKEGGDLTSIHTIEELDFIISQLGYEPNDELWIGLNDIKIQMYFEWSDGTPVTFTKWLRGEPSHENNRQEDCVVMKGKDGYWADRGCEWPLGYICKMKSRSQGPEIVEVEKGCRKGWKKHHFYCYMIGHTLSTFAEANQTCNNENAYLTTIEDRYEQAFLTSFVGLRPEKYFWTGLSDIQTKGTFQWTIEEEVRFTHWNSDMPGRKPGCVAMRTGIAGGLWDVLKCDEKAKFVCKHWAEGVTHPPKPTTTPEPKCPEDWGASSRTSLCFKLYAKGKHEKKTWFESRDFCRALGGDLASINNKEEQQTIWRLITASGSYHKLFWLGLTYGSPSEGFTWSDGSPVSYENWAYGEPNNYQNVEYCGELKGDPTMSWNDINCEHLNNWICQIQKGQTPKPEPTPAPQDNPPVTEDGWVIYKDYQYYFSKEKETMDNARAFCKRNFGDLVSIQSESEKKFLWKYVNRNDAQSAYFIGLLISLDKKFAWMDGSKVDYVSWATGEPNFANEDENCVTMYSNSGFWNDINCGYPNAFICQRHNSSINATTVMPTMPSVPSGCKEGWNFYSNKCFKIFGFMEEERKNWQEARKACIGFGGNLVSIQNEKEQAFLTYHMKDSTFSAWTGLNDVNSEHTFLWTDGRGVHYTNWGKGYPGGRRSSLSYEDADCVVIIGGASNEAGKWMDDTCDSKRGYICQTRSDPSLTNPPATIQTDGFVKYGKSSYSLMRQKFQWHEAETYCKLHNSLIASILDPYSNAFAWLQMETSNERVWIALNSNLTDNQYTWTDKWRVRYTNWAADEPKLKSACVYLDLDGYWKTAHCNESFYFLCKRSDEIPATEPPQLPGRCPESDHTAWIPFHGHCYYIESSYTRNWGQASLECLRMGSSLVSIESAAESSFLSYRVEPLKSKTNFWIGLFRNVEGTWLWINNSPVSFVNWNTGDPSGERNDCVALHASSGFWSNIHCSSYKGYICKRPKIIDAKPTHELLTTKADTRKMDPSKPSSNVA
# Protocol: as §1, §2
# T5 sequence (O00206 24-631 limits assumed): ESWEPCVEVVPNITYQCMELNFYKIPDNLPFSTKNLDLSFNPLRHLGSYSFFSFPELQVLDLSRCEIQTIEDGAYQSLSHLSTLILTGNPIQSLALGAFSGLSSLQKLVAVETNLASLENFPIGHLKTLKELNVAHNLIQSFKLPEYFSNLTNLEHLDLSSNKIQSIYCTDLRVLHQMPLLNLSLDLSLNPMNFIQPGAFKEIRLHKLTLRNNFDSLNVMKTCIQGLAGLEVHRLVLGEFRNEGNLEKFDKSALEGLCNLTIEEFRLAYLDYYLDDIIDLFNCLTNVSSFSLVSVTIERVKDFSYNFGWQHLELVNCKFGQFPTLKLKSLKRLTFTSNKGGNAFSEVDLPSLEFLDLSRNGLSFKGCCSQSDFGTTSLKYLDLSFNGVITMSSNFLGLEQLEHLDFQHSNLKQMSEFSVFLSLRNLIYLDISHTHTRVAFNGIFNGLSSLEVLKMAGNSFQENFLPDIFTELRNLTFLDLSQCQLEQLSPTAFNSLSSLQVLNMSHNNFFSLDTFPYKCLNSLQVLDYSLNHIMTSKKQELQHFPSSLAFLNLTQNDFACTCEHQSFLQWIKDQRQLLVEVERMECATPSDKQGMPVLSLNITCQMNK
inhibition of the interaction of F3 with KCR.Fc (KCR.Fc),inhibition of the interaction of F3 with DC-SIGNR.Fc (DC-SIGNR.Fc),inhibition of the interaction of F3 with TLT2.Fc (TLT-2.Fc),Compound,inhibition of the interaction between Dectin-1.Fc and F3 (Dectin-1.Fc),Percentage of binding of TLR4.Fc to GLPS-F3 relative to binding in absence of sugar competitor (TLR4.Fc) [%],inhibition of interaction between GLPS-F3 and MMR.Fc (MMR.Fc) [%]
completely oabolished,completely oabolished,not,"O=C(O)CN(CCN(CC(=O)O)CC(=O)O)CC(=O)O [EDTA, Ethylene Diamine Tetra Acetic Acid]",not,–,–
–,–,–,"O=C[C@H](O)[C@@H](O)[C@@H](O)[C@H](O)CO [Gal, D-galactose]",not,100 ± 2.7,36

# Reference: patent US8460669B2, “Compositions and methods for identifying response targets and treating flavivirus infection responses” (Academia Sinica, priority 2005, dated 2013)
